Data reported in ChEMBL document CHEMBL2046327, “Jomthonic acid , a modified amino acid from a soil-derived Streptomyces” (J Nat Prod, 2012).
Activity calls are given as the source filed them. No cut-off for these calls is given here.

Legend:
MCF7 = experiment: Cytotoxicity against human MCF7 cells after 48 hrs by MTT assay; type: functional, cell-based; details: MCF7, 48 h
Micrococcus luteus = experiment: Antimicrobial activity against Micrococcus luteus ATCC 9343 after 20 hrs by microplate reader; type: functional; details: ATCC 9343, 20 h
Escherichia coli = experiment: Antimicrobial activity against Escherichia coli NIH-JC2 after 20 hrs by microplate reader; type: functional; details: NIH-JC2, 20 h
Candida albicans = experiment: Antimicrobial activity against Candida albicans IFO1594 after 20 hrs by microplate reader; type: functional; details: IFO1594, 20 h
ST-13 = experiment: Induction of mouse ST-13 cell differentiation into mature adipocyte at 2 to 50 uM; type: functional, cell-based
[1] = Induction of mouse ST-13 cell differentiation into mature adipocyte at 50 uM; type: functional

MIC (Micrococcus luteus): > 50 µg/mL
MIC (Escherichia coli): > 50 µg/mL
MIC (Candida albicans): > 50 µg/mL
SMILES: C/C=C(C)/C=C/C(=O)N[C@H](C(=O)O[C@H](C)[C@@H](C)C(=O)O)[C@H](C)c1ccccc1 [JOMTHONIC ACID A]
IC50 (MCF7): > 100 µM
Activity (ST-13): Active
Activity [1]: 80%
